Assay results reported in paper PMC10092485, “Sialic Acid 4‐N‐Piperazine and Piperidine Derivatives Bind with High Affinity to the P. mirabilis Sialic Acid Sodium Solute Symporter” (Chemmedchem, 2022).
pKd: −log10 of the molar value.

How the values were obtained:
Format in all cases: binding
[1] = target: T1, PmSiaT (Proteus mirabilis, UniProt B4EZY7); assay: isothermal titration calorimetry; settings: 25 °C; 50 mM Tris-HCl, 150 mM NaCl, 0.0174 % DDM, pH 8.0 (at 5 °C); n fixed to 1
T1 construct: gene siaT; detergent-solubilised transporter in DDM; extinction coefficient 76,445
T1 sequence (B4EZY7 whole entry): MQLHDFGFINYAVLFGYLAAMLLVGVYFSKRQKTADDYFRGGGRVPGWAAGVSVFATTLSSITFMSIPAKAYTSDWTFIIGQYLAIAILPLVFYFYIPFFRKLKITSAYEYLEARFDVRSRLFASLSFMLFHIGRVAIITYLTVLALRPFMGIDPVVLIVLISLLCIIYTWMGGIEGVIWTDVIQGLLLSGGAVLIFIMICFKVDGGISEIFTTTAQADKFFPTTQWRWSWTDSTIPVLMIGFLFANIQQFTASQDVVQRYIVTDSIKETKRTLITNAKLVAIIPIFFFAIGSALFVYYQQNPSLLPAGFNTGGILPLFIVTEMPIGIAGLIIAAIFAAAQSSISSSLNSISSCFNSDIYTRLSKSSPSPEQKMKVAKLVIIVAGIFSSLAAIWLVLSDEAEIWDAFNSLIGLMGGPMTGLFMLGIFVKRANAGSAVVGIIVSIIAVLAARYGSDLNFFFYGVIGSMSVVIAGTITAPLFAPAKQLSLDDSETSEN
Excerpt: isothermal titration calorimetry on PmSiaT

[2] = target: T1, PmSiaT; assay: nanoDSF thermal shift; settings: PBS, 0.0174 % DDM, 2 μM protein, 1.25 mM ligand; reference ligand for all shifts
[3] = target: T1, PmSiaT; assay: nanoDSF thermal shift; settings: PBS, 0.0174 % DDM, 2 μM protein, 1.25 mM ligand; shift counted from the Neu5Ac complex

SMILES | pKd [1] | ΔT m (relative to Neu5Ac) [3] | other results
CC(=O)N[C@H]1[C@H]([C@H](O)[C@H](O)CO)OC(O)(C(=O)O)C[C@@H]1N1CCN(C(=O)c2cccc(Cl)c2Cl)CC1 (stereo partly drawn) [6 c, 5‐Acetamido‐4‐[4‐(2,3‐dichlorobenzoyl)piperazin‐1‐yl]‐3,4,5‐ trideoxy‐D‐glycero‐β‐D‐galacto‐nonulosonic acid] | 6.33 |  | 
CC(=O)N[C@H]1[C@H]([C@H](O)[C@H](O)CO)OC(O)(C(=O)O)C[C@@H]1N1CCC(c2cccc(O)c2)CC1 (stereo partly drawn) [3 i, 5‐Acetamido‐4‐[4‐(3‐hydroxyphenyl)piperidin‐1‐yl]‐3,4,5‐ trideoxy‐D‐glycero‐β‐D‐galacto‐nonulosonic acid] | 4.75 |  | 
CC(=O)N[C@H]1[C@H]([C@H](O)[C@H](O)CO)OC(O)(C(=O)O)C[C@@H]1O (stereo partly drawn) [Neu5Ac] |  |  | ΔT m [2]: The ΔT m reported are given in °C and relative to Neu5Ac
CC(=O)N[C@H]1[C@H]([C@H](O)[C@H](O)CO)OC(O)(C(=O)O)C[C@@H]1N1CCC(c2cccc(Br)c2)CC1 (stereo partly drawn) [3 f, 5‐Acetamido‐4‐[4‐(3‐bromophenyl)piperidin‐1‐yl]‐3,4,5‐ trideoxy‐D‐glycero‐β‐D‐galacto‐nonulosonic acid] | 5.88 |  | 
CC(=O)N[C@H]1[C@H]([C@H](O)[C@H](O)CO)OC(O)(C(=O)O)C[C@@H]1N1CCC(c2ccc(Br)cc2)CC1 (stereo partly drawn) [3 g, 5‐Acetamido‐4‐[4‐(4‐bromophenyl)piperidin‐1‐yl]‐3,4,5‐ trideoxy‐D‐glycero‐β‐D‐galacto‐nonulosonic acid] |  | piperidine or piperazine‐linked halogenated aromatic residues showed the largest thermal stabilizations | 
CC(=O)N[C@H]1[C@H]([C@H](O)[C@H](O)CO)OC(O)(C(=O)O)C[C@@H]1N1CCC(c2cccc(C(F)(F)F)c2)CC1 (stereo partly drawn) [3 h, 5‐Acetamido‐3,4,5‐ trideoxy‐4‐[4‐(3‐trifluoromethylphenyl)piperidin‐1‐yl]‐D‐glycero‐β‐D‐galacto‐nonulosonic acid] |  | piperidine or piperazine‐linked halogenated aromatic residues showed the largest thermal stabilizations | 
